Laboratory results from patent publication US20100129297A1, “USE OF AN AQUEOUS GRAPE SEED EXTRACT COMBINED WITH AT LEAST ONE FLUORINE SALT TO COMBAT THE FORMATION OR ACCUMULATION OF DENTAL BIOFILM AND COMPOSITIONS COMPRISING SAID COMBINATION” (priority 2007, published 2010).

Assays:
Porphyromonas = experiment: Preventive action on an experimental buccal biofilm model, Porphyromonas count; assay type: cell-based, Porphyromonas gingivalis ATCC 33277; details: fluorinol compared with NaF, each combined with grape seed extract
Description: The bacterial strains used are: • Streptococcus mutans ATCC 25175 • Streptococcus sobrinus ATCC 33478 • Porphyromonas gingivalis ATCC 33277
These different bacteria, cultivated in their specific medium, are inoculated into 10 mL of universal culture medium FUM (Fluid Universal Medium, composition of the medium in Annex 1), and then incubated in anaerobiosis at 37° C. for 24 hours.
After checking the purity with a microscope, the series of cultures are independently adjusted to OD550 1.0±0.05 (i.e. about 10^7 cells per milliliter) by dilutions with FUM. […]
Serial dilutions to 1:10 of this cell suspension are carried out until concentrations of 10^−2 and 10^−4 are obtained, and then 50 μL of these dilutions are spread over the 4 specific geloses used: mitis salivarius agar, MRS, wilkins chalgren agar (WCA) and blood geloses. The geloses are then placed in anaerobiosis at 37° C. for 48-72 hours and the then the number of formed colonies for each species is counted. […]
The number of colonies formed after 48-72 hours of incubation of the molecules with bacterial biofilms is expressed, after counting, in Colony Forming Units per analyzed Biofilm (or CFU/Biofilm) by the formula:
[Number of counted colonies×dilution factor (10^2 to 10^4)]/Inoculum volume (0.05 mL) […]

[1] = system: glucosyl transferases (GTF); experiment: Inhibition of glucosyl transferases (GTF): initial reaction rate, released fructose (DNS test); assay type: biochemical, Streptococcus sobrinus ATCC 33478
Description: A strain of Streptococcus sobrinus ATCC 33478 is placed in 1 liter of BHI (brain heart infusion) medium enriched in glucose (10 g/L final concentration) in anaerobiosis at 37° C. for 18 hours. This bacterial medium, the pH of which was brought back to 6.5 by means of a NaOH 1N solution, is then centrifuged for 30 minutes at 8,000 rpm at 4° C. The glucosyl transferase, present in the supernatant is concentrated by precipitation with ammonium sulfate. The latter (50% w/saturation v) is gradually added to the supernatant held at 4° C. under stirring for 30 minutes. The mixture is then centrifuged at 8,000 rpm, 4° for 30 minutes. […]
(§1) The results are expressed as inhibition percentages relatively to control solutions (ultra pure water): • the inhibition percentage of the initial rate of the enzymatic reaction (noted as “fructose” in the following table of results) on the one hand • the inhibition percentage of formation of insoluble glucan produced after 24 hours of incubation at 37° C. […]
Dextran interferes on the whole of the colorimetric methods for assaying proteins, because dextran particles diffract light and generate parasitic absorbance. The amount of glucosyl transferase is therefore measured by its activity under standard conditions. […]

[2] = system: glucosyl transferases (GTF); experiment: Inhibition of glucosyl transferases (GTF): amount of synthesized insoluble glucan (weighing); assay type: biochemical, Streptococcus sobrinus ATCC 33478; details: 24 hours at 37° C.
Description: A strain of Streptococcus sobrinus ATCC 33478 is placed in 1 liter of BHI (brain heart infusion) medium enriched in glucose (10 g/L final concentration) in anaerobiosis at 37° C. for 18 hours. This bacterial medium, the pH of which was brought back to 6.5 by means of a NaOH 1N solution, is then centrifuged for 30 minutes at 8,000 rpm at 4° C. The glucosyl transferase, present in the supernatant is concentrated by precipitation with ammonium sulfate. The latter (50% w/saturation v) is gradually added to the supernatant held at 4° C. under stirring for 30 minutes. The mixture is then centrifuged at 8,000 rpm, 4° for 30 minutes. The pellet, rich in glucosyl transferase, is then taken up with phosphate/potassium K2HPO4 buffer (10 mM, pH 10.5), dialyzed (MWC 6-8000; width 14.6 mm) for 16 hours and then frozen at −20° C. This is the solution of purified GTF. […]
as §1
The amount of soluble glucan is measured 24 hours after the beginning of the enzymatic reaction. […]

F.OCc1cccnc1 [fluorinol, 3-pyridyl methanol hydrofluoride]
effect of potentialization of the grape seed extract on Porphyromonas (Porphyromonas): larger than that of NaF | inhibition percentage of the initial enzymatic reaction (fructose) ([1]; fluorinol alone 0.68%): 10.3% | inhibition percentage of the initial enzymatic reaction (fructose) ([1]; fluorinol alone 1.02%): 20.6% | synthesis of insoluble glucan ([2]; fluorinol alone 0.68%): inefficient | synthesis of insoluble glucan ([2]; fluorinol alone 1.02%): inefficient
